PubChem BioAssay AID1919006 (Molecular Pharmacology Branch, DTP, NCI, 2023)
pIC50: −log10 of the molar value.

System: 885512-296-R-J2-PDC complex spheroid growth, % test/control
Assay: Anticancer human tumor 885512-296-R-J2-PDC patient-derived breast carcinoma cell line growth inhibition [AhR]
Details: for pIC50: curve of first compound; for viability, T/C: stronger effect = lower value
Description: Multicellular complex tumor spheroid response to aryl hydrocarbon receptor antagonists in combination with a variety of drugs and investigational agents in selected tumor cell lines
The current study was undertaken to assess response to aryl hydrocarbon receptor antagonists in combination with standard-of-care drugs and investigational agents in solid tumor complex spheroid models. Complex spheroids include a stromal component modeled by human endothelial cells (HUVEC) and fibroblasts modeled by human mesenchymal stem cells (MSCs). The concentration ranges selected for each drug and investigational agent were based upon clinically achievable concentrations if the clinical Cmax of the agent was known.
Compounds. The drugs and investigational agents: BAY 2416964 (NSC825713), GNF351 (NSC835774), CH-223191 (NSC835775), CPI-455 (NSC825282), aza-TdCyd (NSC777586), decitabine (NSC127716), belinostat (NSC758774), entinostat (NSC756642), pevonedistat (NSC761192), tazemetostat (NSC777109), talazoparib (NSC765396), olaparib (NSC753686), selinexor (NSC780203), nedisertib (M3814, NSC802822), bortezomib (NSC756655), venetoclax (NSC766270), doxorubicin (NSC123127), elimusertib (BAY189344, NSC800525), ceralasertib (AZD6738, NSC777638), TAK-243 (NSC785004), alisertib (NSC759677), etoposide (NSC141540), topotecan (NSC609699), eribulin (NSC707389), gemcitabine (NSC613327), carboplatin (NSC241240), cisplatin (NSC119875), and SN-38 (NSC673596) were obtained from the National Cancer Institute (NCI) Developmental Therapeutics Program Chemical Repository (32). The FDA-approved anticancer drug set is available from the Developmental Therapeutics Program at https://dtp.cancer.gov/organization/dscb/obtaining/available plates.htm. […] The stock solutions were prepared in dimethyl sulfoxide (DMSO, Sigma-Aldrich, St. Louis, MO, cat. D2650), except for the platinum compounds which were prepared in saline (Quality Biological, Gaithersburg, MD, cat. 114-055-101), at 800-fold the tested concentration and stored at -70 degrees C prior to their use. All drugs and investigational agents were tested over a range starting from a high concentration at or near the clinical Cmax and decreasing in half-log increments. If the clinical Cmax for an agent had not been determined, the highest concentration tested was 10 microM (Table 1).
Cell Culture. All cells were maintained in an incubator at 37 degrees C and 5% CO2 with 95% humidity. The PDC lines were cultured according to standard operating procedures established by the NCI PDMR (https://pdmr.cancer.gov). Briefly, all PDCs were thawed and cultured in Matrigel-coated flasks prepared with a working solution of 1X Ham's F-12 nutrient mix, without supplementation (Invitrogen, Waltham, MA, cat. 11765054), 100 U/mL penicillin-streptomycin (Invitrogen, cat. 15140122), and 2.5% Matrigel (Corning Inc., Corning, NY, cat. 354248) for the first three passages. All PDCs were cultured in complete DMEM/F-12 media containing advanced DMEM/F-12 (Invitrogen, cat. 12634028), 4.9% defined fetal bovine serum, heat inactivated (HyClone Laboratories Inc., Logan, UT, cat. SH30070.03HI), 389 ng/mL hydrocortisone (Sigma-Aldrich, cat. H4001), 9.7 ng/mL human EGF recombinant protein (Invitrogen, cat. PHG0313), 23.4 microg/mL adenine (Sigma-Aldrich, cat. A2786), 97.3 U/mL penicillin-streptomycin (Invitrogen, cat. 15140122), 1.9 mM L-glutamine (Invitrogen, cat. 25030081), and 9.7 microM Y-27632 dihydrochloride (Tocris Bioscience, Bristol, United Kingdom, cat. 1254). The PDCs were cultured in complete DMEM/F12 media without 10 microM Y-27632 dihydrochloride for at least two passages prior to the screen. The established cell lines NCI-H1341 and […] were cultured in DMEM/F-12, HEPES (Invitrogen, cat. 11330032), 5% defined fetal bovine serum (HyClone Laboratories Inc., cat. SH30070.03), ITS premix universal culture supplement [insulin (5 microg/mL), transferrin (5 microg/mL), and selenious acid (5 ng/mL)] […]

[1] = second compound 0.1 µM, first compound 0.0316 µM
[2] = second compound 0.1 µM, first compound 0.1 µM
[3] = second compound 0.1 µM, first compound 0.316 µM
[4] = second compound 0.1 µM, first compound 1 µM
[5] = second compound 0.1 µM, first compound 3.16 µM
[6] = second compound 0.1 µM, first compound 10 µM
[7] = second compound 0.316 µM, first compound 0.0316 µM
[8] = second compound 0.316 µM, first compound 0.1 µM
[9] = second compound 0.316 µM, first compound 0.316 µM
[10] = second compound 0.316 µM, first compound 1 µM
[11] = second compound 0.316 µM, first compound 3.16 µM
[12] = second compound 0.316 µM, first compound 10 µM
[13] = second compound 1 µM, first compound 0.0316 µM
[14] = second compound 1 µM, first compound 0.1 µM
[15] = second compound 1 µM, first compound 0.316 µM
[16] = second compound 1 µM, first compound 1 µM
[17] = second compound 1 µM, first compound 3.16 µM
[18] = second compound 1 µM, first compound 10 µM
[19] = second compound 3.16 µM, first compound 0.0316 µM
[20] = second compound 3.16 µM, first compound 0.1 µM
[21] = second compound 3.16 µM, first compound 0.316 µM
[22] = second compound 3.16 µM, first compound 1 µM
[23] = second compound 3.16 µM, first compound 3.16 µM
[24] = second compound 3.16 µM, first compound 10 µM
[25] = second compound 10 µM, first compound 0.0316 µM
[26] = second compound 10 µM, first compound 0.1 µM
[27] = second compound 10 µM, first compound 0.316 µM
[28] = second compound 10 µM, first compound 1 µM
[29] = second compound 10 µM, first compound 3.16 µM
[30] = second compound 10 µM, first compound 10 µM
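Note: spheroids exposed to compounds for seven days.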

Compound	pIC50 (second compound 0.1 µM)	pIC50 (second compound 0.316 µM)	pIC50 (second compound 1 µM)	pIC50 (second compound 3.16 µM)	pIC50 (second compound 10 µM)	viability, T/C [1] [%]	viability, T/C [2] [%]	viability, T/C [3] [%]	viability, T/C [4] [%]	viability, T/C [7] [%]	viability, T/C [8] [%]	viability, T/C [9] [%]	viability, T/C [10] [%]	viability, T/C [13] [%]	viability, T/C [14] [%]	viability, T/C [15] [%]	viability, T/C [16] [%]	viability, T/C [19] [%]	viability, T/C [20] [%]	viability, T/C [21] [%]	also measured
COc1cc(C2c3cc4c(cc3C(OC3OC5COC(C)OC5C(O)C3O)C3COC(=O)C23)OCO4)cc(OC)c1O (stereo not given) + CC(CO)NC(=O)c1cc(-c2ccc(Cl)cc2)nn(-c2cnn(C)c2)c1=O	6.11	6.16	6.17	6.31	6.51	102	106	85.9	39.8	96.5	89.2	74.8	39.9	101	103	81.6	33.3	110	97.6	68.4	viability, T/C [5]: 10.2%; viability, T/C [6]: 7.1%; viability, T/C [11]: 9.03%; viability, T/C [12]: 7.53%; viability, T/C [17]: 10.9%; viability, T/C [18]: 8.44%; viability, T/C [22]: 20.8%; viability, T/C [23]: 12.2%; viability, T/C [24]: 7.27%; viability, T/C [25]: 91.5%; viability, T/C [26]: 89.1%; viability, T/C [27]: 48.7%; viability, T/C [28]: 17.7%; viability, T/C [29]: 13.8%; viability, T/C [30]: 9.69%
COc1cccc2c1C(=O)c1c(O)c3c(c(O)c1C2=O)CC(O)(C(=O)CO)CC3OC1CC(N)C(O)C(C)O1 (stereo not given) + CC(CO)NC(=O)c1cc(-c2ccc(Cl)cc2)nn(-c2cnn(C)c2)c1=O	> 7.50	> 7.50	> 7.50	> 7.50	> 7.50	26.3	15.5	6.77	0.48	21.1	14.9	7.09	0.26	24.6	14.6	6.76	0.2	21.3	21.2	3.93	viability, T/C [5]: 0.93%; viability, T/C [6]: 0.78%; viability, T/C [11]: 1.12%; viability, T/C [12]: 0.78%; viability, T/C [17]: 1.11%; viability, T/C [18]: 1.04%; viability, T/C [22]: 0.22%; viability, T/C [23]: 0.98%; viability, T/C [24]: 0.67%; viability, T/C [25]: 15.4%; viability, T/C [26]: 19.3%; viability, T/C [27]: 3.22%; viability, T/C [28]: 0.46%; viability, T/C [29]: 0.54%; viability, T/C [30]: 0.83%
Nc1ncn(C2CC(O)C(CO)O2)c(=O)n1 (stereo not given) + CC(CO)NC(=O)c1cc(-c2ccc(Cl)cc2)nn(-c2cnn(C)c2)c1=O	6.10	6.05	6.06	< 6.00	< 6.00	85.5	89	76.3	43	91.5	101	80.8	46.6	90.5	92.9	77.7	46	82.7	78.8	88.9	viability, T/C (second compound 0.1 µM, first compound 0.00316 µM): 94.9%; viability, T/C (second compound 0.1 µM, first compound 0.01 µM): 94.5%; viability, T/C (second compound 0.316 µM, first compound 0.00316 µM): 81.8%; viability, T/C (second compound 0.316 µM, first compound 0.01 µM): 88.4%; viability, T/C (second compound 1 µM, first compound 0.00316 µM): 95.4%; viability, T/C (second compound 1 µM, first compound 0.01 µM): 104%; viability, T/C (second compound 3.16 µM, first compound 0.00316 µM): 97.8%; viability, T/C (second compound 3.16 µM, first compound 0.01 µM): 95%; viability, T/C [22]: 56.4%; viability, T/C (second compound 10 µM, first compound 0.00316 µM): 88.9%; viability, T/C (second compound 10 µM, first compound 0.01 µM): 92.5%; viability, T/C [25]: 84.1%; viability, T/C [26]: 79.7%; viability, T/C [27]: 82.3%; viability, T/C [28]: 62.1%
